# ChEMBL document CHEMBL3822445, “Histone demethylating agents as potential S-adenosyl-l-methionine-competitors” (Medchemcomm, 2016)
# Activity calls are given as the source filed them. No cut-off for these calls is given here.
# Tests used:
# [1] = Antiproliferative activity against human Ovarian cancer DC#110 cells assessed as cell survival at 20 uM after 72 hrs by MTT assay relative to control; type: functional; settings: read-out: Survival
# MCF7 [2] = assay: Induction of apoptosis in human MCF7 cells assessed as necrotic cells at 15 uM after 48 hrs by AnnexinV-FITC staining based flow cytometry (reference value: 10.2 +/- 1.9 %); type: functional
# MCF7 [3] = assay: Induction of apoptosis in human MCF7 cells assessed as late apoptotic cells at 15 uM after 72 hrs by AnnexinV-FITC staining based flow cytometry (reference value: 11.8 +/- 2.2 %); type: functional
# [4] = Antiproliferative activity against human Ovarian cancer DC#83 cells assessed as cell survival at 20 uM after 72 hrs by MTT assay relative to control; type: functional; settings: read-out: Survival
# MCF7 [5] = assay: Induction of apoptosis in human MCF7 cells assessed as viable cells at 15 uM after 48 hrs by AnnexinV-FITC staining based flow cytometry (reference value: 74.4 +/- 9.1 %); type: functional; settings: MCF7, 48 h, read-out: Activity
# MCF7 [6] = assay: Inhibition of DNA methylation in human MCF7 cells assessed as reduction in H3K9me3 levels at 0.5 to 1 uM after 48 hrs by Western blot analysis; type: cell-based
# MCF7 [7] = assay: Induction of apoptosis in human MCF7 cells assessed as early apoptotic cells at 15 uM after 72 hrs by AnnexinV-FITC staining based flow cytometry (reference value: 20.1 +/- 7.3 %); type: functional
# MCF7 [8] = assay: Induction of apoptosis in human MCF7 cells assessed as early apoptotic cells at 15 uM after 48 hrs by AnnexinV-FITC staining based flow cytometry (reference value: 7.8 +/- 5.3 %); type: functional
# MCF7 [9] = assay: Induction of apoptosis in human MCF7 cells assessed as viable cells at 15 uM after 72 hrs by AnnexinV-FITC staining based flow cytometry (reference value: 60.5 +/- 6 %); type: functional; settings: MCF7, 72 h, read-out: Activity
# MCF7 [10] = assay: Induction of apoptosis in human MCF7 cells assessed as necrotic cells at 15 uM after 72 hrs by AnnexinV-FITC staining based flow cytometry (reference value: 7.6 +/- 1 %); type: functional
# [11] = Antiproliferative activity against human Ovarian cancer LA#83 cells assessed as cell survival at 20 uM after 72 hrs by MTT assay relative to control; type: functional; settings: read-out: Survival
# [12] = molecular target: T1, Histone-lysine N-methyltransferase EHMT2 (Homo sapiens) (UniProt Q96KQ7); assay: Inhibition of G9a in human MCF7 nuclear extracts assessed as reduction in H3K9 levels at 15 uM after 48 hrs; type: cell-based
# T1 sequence (whole entry): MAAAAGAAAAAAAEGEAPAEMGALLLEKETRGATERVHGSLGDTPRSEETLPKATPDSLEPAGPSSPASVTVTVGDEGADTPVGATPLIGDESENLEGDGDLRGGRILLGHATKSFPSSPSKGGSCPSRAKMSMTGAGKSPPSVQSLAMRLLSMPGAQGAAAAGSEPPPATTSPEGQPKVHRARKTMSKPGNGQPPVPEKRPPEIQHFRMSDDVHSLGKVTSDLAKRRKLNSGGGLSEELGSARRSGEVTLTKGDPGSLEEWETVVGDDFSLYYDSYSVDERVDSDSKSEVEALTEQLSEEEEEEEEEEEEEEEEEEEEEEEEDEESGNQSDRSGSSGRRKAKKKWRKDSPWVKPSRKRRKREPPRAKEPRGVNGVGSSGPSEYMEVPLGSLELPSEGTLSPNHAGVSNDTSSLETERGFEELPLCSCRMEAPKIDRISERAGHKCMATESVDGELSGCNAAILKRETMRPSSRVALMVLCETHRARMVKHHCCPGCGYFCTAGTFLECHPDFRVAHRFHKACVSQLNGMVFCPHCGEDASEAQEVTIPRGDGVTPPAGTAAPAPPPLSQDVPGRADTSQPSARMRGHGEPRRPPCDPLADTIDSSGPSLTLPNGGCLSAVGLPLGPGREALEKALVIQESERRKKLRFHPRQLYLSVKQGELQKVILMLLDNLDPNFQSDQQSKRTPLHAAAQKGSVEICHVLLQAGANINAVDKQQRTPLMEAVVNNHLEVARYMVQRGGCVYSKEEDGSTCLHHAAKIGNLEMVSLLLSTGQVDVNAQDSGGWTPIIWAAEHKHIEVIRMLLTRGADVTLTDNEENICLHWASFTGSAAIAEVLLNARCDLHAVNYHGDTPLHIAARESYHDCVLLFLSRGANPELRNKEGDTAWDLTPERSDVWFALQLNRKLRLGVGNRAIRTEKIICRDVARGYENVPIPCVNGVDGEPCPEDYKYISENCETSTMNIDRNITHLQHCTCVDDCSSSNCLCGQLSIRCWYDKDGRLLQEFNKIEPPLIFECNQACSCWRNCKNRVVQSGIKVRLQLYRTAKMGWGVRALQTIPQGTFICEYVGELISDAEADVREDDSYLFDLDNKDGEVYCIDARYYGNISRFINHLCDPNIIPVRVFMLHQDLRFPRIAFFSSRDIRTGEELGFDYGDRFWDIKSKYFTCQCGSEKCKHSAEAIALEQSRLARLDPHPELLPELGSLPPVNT
# [13] = molecular target: T1, Histone-lysine N-methyltransferase EHMT2 (Homo sapiens); assay: Inhibition of G9a in human MCF7 nuclear extracts assessed as reduction in H3K27 levels at 15 uM after 48 hrs; type: cell-based
# [14] = Antiproliferative activity against human Ovarian cancer LA#110 cells assessed as cell survival at 20 uM after 72 hrs by MTT assay relative to control; type: functional; settings: read-out: Survival
# MCF7 [15] = assay: Induction of apoptosis in human MCF7 cells assessed as late apoptotic cells at 15 uM after 48 hrs by AnnexinV-FITC staining based flow cytometry (reference value: 7.6 +/- 5.9 %); type: functional
# MCF7 [16] = assay: Inhibition of DNA methylation in human MCF7 cells assessed as reduction in H3K9me3 levels at 15 uM after 48 hrs by Western blot analysis; type: cell-based
# MCF7 [17] = assay: Inhibition of DNA methylation in human MCF7 cells assessed as decrease in methylation of RARbeta DNA by qPCR method; type: cell-based
# MCF7 [18] = assay: Inhibition of DNA methylation in human MCF7 cells assessed as reduction in H3K27me3 levels at 15 uM after 48 hrs by Western blot analysis; type: cell-based
# MSTO-211H = assay: Antiproliferative activity against human MSTO-211H cells after 48 to 72 hrs by MTT assay; type: functional, cell-based
# MCF7 [19] = assay: Inhibition of DNA methylation in human MCF7 cells assessed as decrease in 5-methylcytosine level by ELISA; type: cell-based
# MCF7 [20] = assay: Cell cycle arrest in human MCF7 cells assessed as accumulation at S phase at 15 uM after 24 to 72 hrs by flow cytometry relative to control; type: functional
# MCF7 [21] = assay: Antiproliferative activity against human MCF7 cells after 48 to 72 hrs by MTT assay; type: functional, cell-based
# [22] = Antiproliferative activity against human H460 cells after 48 to 72 hrs by MTT assay; type: functional, cell-based; settings: NCI-H460
# MCF7 [23] = assay: Cell cycle arrest in human MCF7 cells assessed as accumulation at G2/M phase at 15 uM after 72 hrs by flow cytometry relative to control; type: functional
# MCF7 [24] = assay: Inhibition of DNA methylation in human MCF7 cells assessed as melting temperature of RARbeta amplicon DNA by qPCR method (reference value: 77 degC); type: cell-based
structure (smiles),measurement,setting,value
Nc1nccc2c1ncn2[C@@H]1C=C(CO)[C@@H](O)[C@H]1O,viability at 20 µM,[1],13.6%
same,Activity,MCF7 [2],7.8%
same,Activity,MCF7 [3],24.1%
same,viability at 20 µM,[4],63.5%
same,viability at 15 µM,MCF7 [5],32.2%
same,inhibition,MCF7 [6],inactive
same,Activity,MCF7 [7],17.4%
same,Activity,MCF7 [8],12.8%
same,viability at 15 µM,MCF7 [9],52.6%
same,Activity,MCF7 [10],5.9%
same,viability at 20 µM,[11],42.5%
same,inhibition,[12],Active
same,inhibition,[13],Active
same,viability at 20 µM,[14],30.4%
same,Activity,MCF7 [15],16.1%
CCCCN1C(=O)[C@@H]2Cc3c([nH]c4ccccc34)CN2C1=O,inhibition,MCF7 [16],inactive
same,inhibition,MCF7 [17],inactive
same,viability at 20 µM,[1],80.8%
same,inhibition,MCF7 [18],inactive
same,Activity,MCF7 [2],4.2%
same,Activity,MCF7 [3],17.7%
same,viability at 20 µM,[4],93.3%
same,viability at 15 µM,MCF7 [5],69%
same,Activity,MCF7 [7],27.9%
same,Activity,MCF7 [8],13%
same,viability at 15 µM,MCF7 [9],47.7%
same,Activity,MCF7 [10],6.7%
same,viability at 20 µM,[11],81.9%
same,inhibition,[12],Active
same,IC50,MSTO-211H,> 20 µM
same,inhibition,MCF7 [19],Active
same,Activity,MCF7 [20],10.8%
same,IC50,MCF7 [21],37.5 µM
same,viability at 20 µM,[14],66.7%
same,IC50,[22],> 20 µM
same,Activity,MCF7 [15],13.8%
CN1c2ccccc2C(=O)N2CCc3c([nH]c4ccccc34)[C@H]21,inhibition,MCF7 [16],100%
same,Activity,MCF7 [23],39.3%
same,viability at 20 µM,[1],43.1%
same,inhibition,MCF7 [18],60%
same,Activity,MCF7 [2],9%
same,Activity,MCF7 [3],33.2%
same,viability at 20 µM,[4],65.5%
same,viability at 15 µM,MCF7 [5],51.5%
same,Activity,MCF7 [7],16.8%
same,Activity,MCF7 [8],11.9%
same,viability at 15 µM,MCF7 [9],41.9%
same,Activity,MCF7 [10],8.1%
same,viability at 20 µM,[11],53.2%
same,inhibition,[12],Active
same,Tm,MCF7 [24],75.5 °C
same,IC50,MSTO-211H,0.54 µM
same,inhibition,MCF7 [19],Active
same,inhibition,[13],inactive
same,IC50,MCF7 [21],5.4 µM
same,viability at 20 µM,[14],26.8%
same,IC50,[22],0.26 µM
same,Activity,MCF7 [15],27.6%
